# According to patent US20150232509A1, “SPIRO RING COMPOUNDS AS HEPATITIS C VIRUS (HCV) INHIBITORS” (SUNSHINE LAKE PHARMA CO., LTD., priority 2012, published 2015):
# What was measured:
# HCV GT1b replicon cells = assay: HCV Replicon assay, GT1b replicon cells (Luciferase / NEO qPCR); format: cell-based; settings: Hepatitis C virus, 72 hours incubation, read-out: EC50 against HCV 1b genotype
# Description: (§1) An HCV Replicon assay was utilized in the present invention, and was prepared, developed and validated as described in Science, 1999, 285 (5424), 110-3 and J. Virol., 2003, 77 (5), 3007-19.
# (§2) HCV GT1a, GT1b and GT2a replicon cells were used to test the currently described compound series as well as wild-type cells HCV 1b and resistant cells Y93H, L31F, P32L and 1302V. […]
# (§3) The GT1a cells and GT1b cells were seeded into 96-well plates (8,000 cells in 125 μL/well) respectively; each compound was diluted to desired concentration using 5-fold serial dilutions protocol, 10 doses in duplicate, and added to wells with POD™ 810 Plate Assembler. The final concentration of DMSO was 0.5%; the plates were incubated in a CO2 incubator for 72 hours; after that, 40 μL of Luciferase assay substrate (Promega Bright-Glo) was added to each well, and detected by a chemiluminescence detection system (Topcount Microplate Scintillation and Luminescence Counter) 5 minutes later; data analysis.
# (§4) The GT1a cells and GT1b cells were seeded into 96-well plates (8,000 cells in 125 μL/well) respectively; each compound was diluted to desired concentration using 5-fold serial dilutions protocol, 10 doses in duplicate, and added to wells with POD™ 810 Plate Assembler., the final concentration of DMSO was 0.5%; the cells were incubated in a CO2 incubator for 72 hours; quantitative PCR. • Sample preparation: the supernatant was removed, 100 μL of FCW buffer solution was added to each well, washed carefully and discarded the solution; 50 μL of lysate FCP was added to each well, the cells was lysed as PCR template and PCR template was diluted with DEPC water as sample template. • Quantitative PCR: preparation of reaction mixture according to PCR system; the reaction mixture was dispensed into a 384-well PCR reaction plate (specially for quantitative); and a standard template which was diluted in proportion was distributed into the plate; and the sample template was distributed into the plate; then the 384-well plate was sealed with closure plate membrane; the […] PCR machine was operated by procedures; data analysis. 3. Data Processing: the EC50 Values of Compounds were Analyzed by GraphPad Prism Software.
# HCV GT1a replicon cells = assay: HCV Replicon assay, GT1a replicon cells (Luciferase / NEO qPCR); format: cell-based; settings: Hepatitis C virus, 72 hours incubation, read-out: EC50 against HCV 1a genotype
# Description: as §1, §2, §3, §4
SMILES,EC50 (HCV GT1b replicon cells),EC50 (HCV GT1a replicon cells)
COC(=O)NC(C(=O)N1CCCC1c1nc2cc(-c3ccc(-c4ccc5[nH]c(C6CCCN6C(=O)C(NC(=O)OC)C(C)C)nc5c4)c4c3CCC43CCCC3)ccc2[nH]1)C(C)C (centres unmarked) [Example 53],0.074 nM,0.263 nM
COC(=O)N[C@H](C(=O)N1CCC[C@H]1c1ncc(-c2ccc(-c3ccc(-c4cnc([C@@H]5CCCN5C(=O)[C@@H](NC(=O)OC)c5ccccc5)[nH]4)c4c3C3(CC4)CCN(C)CC3)cc2)[nH]1)c1ccccc1 [Example 43],0.148 nM,7.28 nM
COC(=O)N[C@H](C(=O)N1CCC[C@H]1c1ncc(C#Cc2ccc(-c3ccc(-c4cnc([C@@H]5CCCN5C(=O)[C@@H](NC(=O)OC)C(C)C)[nH]4)cc3)c3c2CCC32CCCC2)[nH]1)C(C)C [Example 13],0.032 nM,0.438 nM
COC(=O)N[C@H](C(=O)N1C[C@@H](C)C[C@H]1c1nc(-c2ccc(-c3ccc(-c4ccc5nc([C@@H]6C[C@H](C)CN6C(=O)[C@@H](NC(=O)OC)C(C)C)[nH]c5c4)c4c3C3(CCCC3)CC4)cc2)c[nH]1)C(C)C [Example 16],0.005 nM,0.008 nM
COC(=O)N[C@H](C(=O)N1C2CC2C[C@H]1c1ncc(-c2ccc(-c3ccc(-c4ccc(-c5cnc([C@@H]6CC7CC7N6C(=O)[C@@H](NC(=O)OC)C(C)C)[nH]5)cc4)c4c3CCC43CCCC3)cc2)[nH]1)C(C)C (some centres unmarked) [Example 23],0.012 nM,0.334 nM
COC(=O)N[C@H](C(=O)N1CCC[C@H]1c1ncc(-c2ccc(-c3ccc(-c4ccc5nc([C@@H]6CCCN6C(=O)[C@@H](NC(=O)OC)C(C)C)[nH]c5c4)c4c3CCC43CCCC3)c3cnoc23)[nH]1)C(C)C [Example 46],0.118 nM,0.388 nM
CC(C)[C@H](NC(=O)OC(C)(C)C)C(=O)N1CCC[C@H]1c1ncc(-c2ccc(C3CCC(c4cnc([C@@H]5CCCN5C(=O)[C@@H](NC(=O)OC(C)(C)C)C(C)C)[nH]4)CC3)c3c2CCC32CCCC2)[nH]1 (some centres unmarked) [Example 10],3.46 nM,9.86 nM
COC(=O)N[C@H](C(=O)N1CCC[C@H]1c1ncc(-c2ccc(-c3ccc(-c4ccc5nc([C@@H]6CCCN6C(=O)[C@@H](NC(=O)OC)C(C)C)[nH]c5c4)c4c3CCCC43CCCC3)nc2)[nH]1)C(C)C [Example 45],0.034 nM,0.107 nM
COC(=O)N[C@H](C(=O)N1CCC[C@H]1C(=O)Nc1cccc(-c2ccc(-c3ccc(-c4cnc([C@@H]5CCCN5C(=O)[C@@H](NC(=O)OC)C(C)C)[nH]4)cc3)c3c2CCC32CCCC2)c1)C(C)C [Example 34],0.017 nM,0.837 nM
COC(=O)N[C@H](C(=O)N1C2CCC(C2)[C@H]1c1ncc(-c2ccc(-c3ccc(-c4cnc([C@@H]5C6CCC(C6)N5C(=O)[C@@H](NC(=O)OC)C(C)C)[nH]4)c4c3C3(CCCC3)CC4)cc2)[nH]1)C(C)C (some centres unmarked) [Example 25],0.032 nM,10.7 nM
COC(=O)N[C@H](C(=O)N1CC2(CC2)C[C@H]1c1ncc(-c2ccc(-c3ccc(-c4ccc(-c5cnc([C@@H]6CC7(CC7)CN6C(=O)[C@@H](NC(=O)OC)C(C)C)[nH]5)cc4)c4c3CCC43CCCC3)cc2)[nH]1)C(C)C [Example 22],0.876 nM,3.65 nM
CCC(C)[C@H](NC(=O)OC)C(=O)N1CCC[C@H]1c1nc2ccc(-c3ccc(-c4ccc(-c5cnc([C@@H]6CCCN6C(=O)[C@@H](NC(=O)OC)C(C)C)[nH]5)cc4)c4c3CCC43CCCC3)cc2[nH]1 (some centres unmarked) [Example 9],0.032 nM,0.097 nM
COC(=O)N[C@H](C(=O)N1CCC[C@H]1c1ncc(-c2ccc3cc(-c4ccc(-c5cnc([C@@H]6CCCN6C(=O)[C@@H](NC(=O)OC)C(C)C)[nH]5)c5c4C4(CCCC4)CC5)ccc3c2)[nH]1)C(C)C [Example 30],0.074 nM,3.2 nM
COC(=O)N[C@H](C(=O)N1CCS[C@H]1c1ncc(-c2ccc(-c3ccc(-c4cnc([C@@H]5SCCN5C(=O)[C@@H](NC(=O)OC)C(C)C)[nH]4)c4c3C3(CCCC3)CC4)cc2)[nH]1)C(C)C [Example 28],0.667 nM,4.57 nM
COC(=O)N[C@H](C(=O)N1CCC[C@H]1c1ncc(-c2ccc(-c3ccc(-c4cnc([C@@H]5CCCN5C(=O)[C@@H](NC(=O)OC)C(C)C)[nH]4)c4c3C3(CCCN3C)CC4)cc2)[nH]1)C(C)C (some centres unmarked) [Example 49],0.357 nM,23.6 nM
COC(=O)N[C@H](C(=O)N1CCC[C@H]1c1ncc(-c2ccc(-c3ccc(-c4ccc5nc([C@@H]6CCCN6C(=O)[C@@H](NC(=O)OC)C(C)C)[nH]c(=O)c5c4)c4c3C3(CCCC3)CC4)cc2)[nH]1)C(C)C [Example 38],0.009 nM,0.066 nM

SMILES,EC50 (HCV GT1b replicon cells),EC50 (HCV GT1a replicon cells)
COC(=O)N[C@H](C(=O)N1CCC[C@H]1c1ncc(-c2ccc(-c3ccc(-c4cnc([C@@H]5CCCN5C(=O)[C@@H](NC(=O)OC)C(C)C)[nH]4)c4c3C3(CCCO3)CCC4)cc2)[nH]1)C(C)C (some centres unmarked) [Example 51],0.086 nM,4.57 nM
COC(=O)N[C@H](C(=O)N1CCC[C@H]1c1ncc(-c2ccc(-c3ccc(-c4cnc([C@@H]5CCCN5C(=O)[C@@H](NC(=O)OC)C(C)C)[nH]4)c4c3C3(CCOC3)CC4)cc2)[nH]1)C(C)C (some centres unmarked) [Example 52],0.033 nM,3.67 nM
COC(=O)N[C@H](C(=O)N1CCC[C@H]1c1ncc(-c2ccc(-c3ccc(-c4ccc5nc([C@@H]6CCCN6C(=O)[C@@H](NC(=O)OC)C(C)C)[nH]c5c4)cc3)c3c2CCC32CCCC2)[nH]1)C(C)C [Example 29],0.218 nM,8.68 nM
COC(=O)NC(C(=O)N1CCCC1c1ncc(-c2ccc(-c3ccc(-c4ccc5[nH]c(C6CCCN6C(=O)C(NC(=O)OC)C(C)C)nc5c4)c4c3CCC43CCCC3)cc2)[nH]1)C(C)C (centres unmarked) [Example 56],0.036 nM,0.138 nM
COC(=O)N[C@H](C(=O)N1C[C@@H](C)C[C@H]1c1ncc(-c2ccc(-c3ccc(-c4cnc([C@@H]5C[C@H](C)CN5C(=O)[C@@H](NC(=O)OC)C(C)C)[nH]4)c4c3C3(CCCC3)CC4)cc2)[nH]1)C(C)C [Example 14],0.011 nM,0.785 nM
COC(=O)N[C@H](C(=O)N1CCC[C@H]1c1nc(-c2ccc(-c3ccc(-c4ccc5nc([C@@H]6CCCN6C(=O)[C@@H](NC(=O)OC)C(C)C)[nH]c5c4)c4c3CCC43CCCC3)c3c2CCC3)c[nH]1)C(C)C [Example 36],0.089 nM,1.08 nM
CNC(=O)N[C@H](C(=O)N1C2CC2C[C@H]1c1nc2ccc(-c3ccc(-c4ccc(-c5cnc([C@@H]6CCCN6C(=O)[C@@H](NC(=O)OC)C(C)C)[nH]5)cc4)c4c3C3(CCCC3)CC4)cc2[nH]1)C(C)C (some centres unmarked) [Example 11],0.096 nM,0.447 nM
COC(=O)N[C@H](C(=O)N1CCC[C@H]1c1ncc(-c2ccc(-c3ccc(-c4cnc([C@@H]5CCCN5C(=O)[C@@H](NC(=O)OC)C(C)C)[nH]4)c4c3C3(CC4)CCN(C)C3)cc2)[nH]1)C(C)C (some centres unmarked) [Example 48],0.24 nM,3.08 nM
COC(=O)N[C@H](C(=O)N1CCC[C@H]1c1ncc(-c2ccc(-c3ccc(-c4ccc5nc([C@@H]6CCCN6C(=O)[C@@H](NC(=O)OC)C(C)C)[nH]c5c4)c4c3CCC43CCCC3)c3ccccc23)[nH]1)C(C)C [Example 37],0.099 nM,3.78 nM
COC(=O)N[C@H](C(=O)N1CCC[C@H]1c1ncc(-c2ccc(-c3sc(-c4cnc([C@@H]5CCCN5C(=O)[C@@H](NC(=O)OC)C(C)C)[nH]4)c4c3C3(CCCC3)CC4)cc2)[nH]1)C(C)C [Example 47],0.687 nM,3.57 nM
COC(=O)N[C@H](C(=O)N1CCC[C@H]1c1ncc(-c2ccc(-c3ccc(-c4cnc([C@@H]5CCCN5C(=O)[C@@H](NC(=O)OC)C(C)C)[nH]4)c4c3C3(CC4)CCC(C)CC3)s2)[nH]1)C(C)C (some centres unmarked) [Example 44],0.937 nM,13.7 nM
COC(=O)N[C@H](C(=O)N1CC(C)=C[C@H]1c1ncc(-c2ccc(-c3ccc(-c4cnc([C@@H]5C=C(C)CN5C(=O)[C@@H](NC(=O)OC)C(C)C)[nH]4)c4c3C3(CCCC3)CC4)cc2)[nH]1)C(C)C [Example 35],0.086 nM,0.518 nM
COC(=O)N[C@H](C(=O)N1CCC[C@H]1c1ncc(-c2ccc(-c3ccc(-c4cnc([C@@H]5CCCN5C(=O)[C@@H](NC(=O)OC)C5CCCCC5)[nH]4)c4c3C3(CCCC3)CC4)cc2)[nH]1)C1CCCCC1 [Example 15],0.029 nM,0.886 nM
COC(=O)N[C@H](C(=O)N1C[C@@H](C)C[C@H]1c1nc(-c2ccc(-c3ccc(-c4ccc(-c5c[nH]c([C@@H]6C[C@H](C)CN6C(=O)[C@@H](NC(=O)OC)C(C)C)n5)cc4)c4c3CCC43CCCC3)cc2)c[nH]1)C(C)C [Example 21],0.98 nM,4.88 nM
COC(=O)N[C@H](C(=O)N1CCC[C@H]1c1ncc(-c2ccc(-c3ccc(-c4ccc5nc([C@@H]6CCCN6C(=O)[C@@H](NC(=O)OC)C(C)C)[nH]c5c4)c4c3CCCC43CCC3)s2)[nH]1)C(C)C [Example 41],0.043 nM,0.876 nM
